Results published in publication PMC5223195, “Novel long-chain compounds with both immunomodulatory and MenA inhibitory activities against Staphylococcus aureus and its biofilm” (Scientific Reports, 2017).
Values after ≈ are worked out from the molar mass of the structure shown. Where two headings read alike, the source gives them in different places.

Columns and labels:
MRSA USA700 = assay: MIC against MRSA USA700; assay type: cell-based, Staphylococcus aureus; settings: for MIC: Staphylococcus aureus, read-out: MIC, Staphylococcus aureus isolate USA700
Method: (§1) 96-well plates were seeded with 5 × 10^5 CFU/mL in a volume of 100 μL of tryptic soy broth (TSB) per well for Staphylococcus aureus assays. Compounds were dissolved in DMSO and serially diluted as 1:2 dilutions to give the final concentration ranging from 0.25 to 128 μg/mL per well. […] Plates were incubated at 37 °C for 18–20 hours and MIC was determined by reading OD625. For M.avium and M.abscessus, 7H9 broth media was used for determination of MICs. The final concentration was 5 × 10^5 CFU/mL in each well. The plate was incubated at 37 °C for 7–8 days and MICs were determined using a Tecan microplate reader (OD625) and resazurin reduction assay.

MRSA USA400 = assay: MIC against MRSA USA400; assay type: cell-based, Staphylococcus aureus; settings: for MIC: Staphylococcus aureus, read-out: MIC, Staphylococcus aureus isolate USA400
Method: as §1

[1] = tested on: Methicillin susceptible Staphylococcus aureus; assay: MIC against MSSA; assay type: cell-based; settings: for MIC: MSSA
Method: as §1

Pseudomonas aeruginosa = assay: MIC against Pseudomonas aeruginosa; assay type: cell-based; settings: read-out: MIC, PA
MRSA USA100 = assay: MIC against MRSA USA100; assay type: cell-based, Staphylococcus aureus; settings: Staphylococcus aureus, read-out: MIC, Staphylococcus aureus isolate USA100
Method: as §1

MRSA USA200 = assay: MIC against MRSA USA200; assay type: cell-based, Staphylococcus aureus; settings: for MIC: Staphylococcus aureus, read-out: MIC, Staphylococcus aureus isolate USA200
Method: as §1

MRSA USA300 = assay: MIC against MRSA USA300; assay type: cell-based, Staphylococcus aureus; settings: Staphylococcus aureus, read-out: MIC, Staphylococcus aureus isolate USA300
Method: as §1

Enterococcus faecalis = assay: MIC against Enterococcus faecalis; assay type: cell-based; settings: read-out: MIC, EF
MRSA USA500 = assay: MIC against MRSA USA500; assay type: cell-based, Staphylococcus aureus; settings: TSB, 37 °C, 18–20 hours; for MIC: Staphylococcus aureus, read-out: MIC, Staphylococcus aureus isolate USA500
Method: as §1

MRSA USA800 = assay: MIC against MRSA USA800; assay type: cell-based, Staphylococcus aureus; settings: Staphylococcus aureus; TSB, 37 °C, 18–20 hours; read-out: MIC, Staphylococcus aureus isolate USA800
Method: as §1

Mycobacterium avium = assay: MIC against Mycobacterium avium; assay type: cell-based; settings: 7H9 broth, 7–8 days
Method: as §1

SMILES	MIC (MRSA USA400; TSB, 37 °C, 18–20 hours) [µg/mL]	MIC (MRSA USA700; TSB, 37 °C, 18–20 hours) [µg/mL]	MIC [1] [µg/mL]	MIC (Enterococcus faecalis) [µg/mL]	MIC (MRSA USA700) [µg/mL]	other results
Fc1ccc(N2CCN(CCCOc3ccc4ccc(OCCCN5CCN(c6ccc(F)cc6)CC5)cc4c3)CC2)cc1 [7d, 2,7-bis(3-(4-(4-fluorophenyl)piperazin-1-yl)propoxy)naphthalene]					> 128	
COc1ccc2ccc(OCCCCCCCCN[C@@H]3CCOC3=O)cc2c1 [3h]	> 128	> 128	> 128			MIC (Pseudomonas aeruginosa): > 128 µg/mL
COc1ccc2ccc(OCCCCCCCCN3CCC(F)CC3)cc2c1 [3i]					> 128	
Brc1ccc2cc(OCCCCCCCCN3CCCCC3)ccc2c1 [5d]					16 (≈ 38.2 µM)	MIC (MRSA USA100): 8 µg/mL (≈ 19.1 µM); MIC (MRSA USA400): 4 µg/mL (≈ 9.56 µM)
COc1ccc2ccc(OC/C=C/COCCCN3CCCCC3)cc2c1 [4b]					128 (≈ 346 µM)	MIC (Pseudomonas aeruginosa): > 128 µg/mL
CC(=O)NC[C@H]1CN(c2ccc(N3CCOCC3)c(F)c2)C(=O)O1 [Linezolid, reference compound]	1 (≈ 2.96 µM)	1 (≈ 2.96 µM)	1 (≈ 2.96 µM)	> 32		MIC (MRSA USA100; TSB, 37 °C, 18–20 hours): 0.5 µg/mL (≈ 1.48 µM); MIC (MRSA USA200; TSB, 37 °C, 18–20 hours): 1 µg/mL (≈ 2.96 µM); MIC (MRSA USA300; TSB, 37 °C, 18–20 hours): 1 µg/mL (≈ 2.96 µM); MIC (MRSA USA500): 0.5 µg/mL (≈ 1.48 µM); MIC (MRSA USA800): 0.5 µg/mL (≈ 1.48 µM); MIC (Pseudomonas aeruginosa): 1 µg/mL (≈ 2.96 µM)
C=CCN(C)CCCOc1ccc2ccc(OCCCN(C)CC=C)cc2c1 [7a]						MIC, Staphylococcus aureus isolate USA200 (MRSA USA200; TSB, 37 °C, 18–20 hours): >128 µg/mL; MIC, Staphylococcus aureus isolate USA700 (MRSA USA700; TSB, 37 °C, 18–20 hours): 128 µg/mL (≈ 335 µM)
COc1ccc2ccc(OCCCCCCCCN3CCc4ccccc4C3)cc2c1 [3d]						MIC, Staphylococcus aureus isolate USA200 (MRSA USA200; TSB, 37 °C, 18–20 hours): >128 µg/mL; MIC, Staphylococcus aureus isolate USA400 (MRSA USA400; TSB, 37 °C, 18–20 hours): 64 µg/mL (≈ 153 µM); MIC, Staphylococcus aureus isolate USA500 (MRSA USA500): 128 µg/mL (≈ 307 µM); MIC, Staphylococcus aureus isolate USA700 (MRSA USA700; TSB, 37 °C, 18–20 hours): 32 µg/mL (≈ 76.6 µM); MIC, MSSA [1]: 32 µg/mL (≈ 76.6 µM)
COc1ccc2ccc(OCCCCCCCCN3CCN(c4ccc(F)cc4)CC3)cc2c1 [3e]				> 128	> 128	
Brc1ccc(CCNCCCCCCCCOc2ccc3cc(Br)c(OCc4ccccc4)cc3c2)cc1 [6e]					128 (≈ 200 µM)	MIC (MRSA USA200): 128 µg/mL (≈ 200 µM); MIC (MRSA USA300): > 128 µg/mL
COc1ccc2ccc(OC/C=C/COCCCNCCc3ccc(F)cc3)cc2c1 [4c]	8 (≈ 18.9 µM)	16 (≈ 37.8 µM)	16 (≈ 37.8 µM)			MIC (MRSA USA100; TSB, 37 °C, 18–20 hours): 8 µg/mL (≈ 18.9 µM); MIC (MRSA USA300; TSB, 37 °C, 18–20 hours): 8 µg/mL (≈ 18.9 µM); MIC (MRSA USA500): 16 µg/mL (≈ 37.8 µM); MIC (MRSA USA800): 16 µg/mL (≈ 37.8 µM); MIC (Pseudomonas aeruginosa): > 64 µg/mL; MIC (Mycobacterium avium): 8 µg/mL (≈ 18.9 µM)
C=CCN(C)CCCOC/C=C/COc1ccc2ccc(OC)cc2c1 [4a]					128 (≈ 360 µM)	MIC (MRSA USA200): 128 µg/mL (≈ 360 µM)
COc1ccc2ccc(OCCCCCCCCN3C(=O)OC[C@@H]3Cc3ccccc3)cc2c1 [3g]	> 128	> 128	> 128			MIC (Pseudomonas aeruginosa): > 128 µg/mL
c1cc2ccc(OCCCN3CCCCC3)cc2cc1OCCCN1CCCCC1 [7b]					> 128	
COc1ccc2ccc(OCCCCCCCCn3c4ccccc4c4ccccc43)cc2c1 [3f]					> 128	MIC (MRSA USA100): > 128 µg/mL

Continued, in another order:

MIC (MRSA USA400; TSB, 37 °C, 18–20 hours) [µg/mL]	MIC (MRSA USA700; TSB, 37 °C, 18–20 hours) [µg/mL]	MIC [1] [µg/mL]	MIC (Enterococcus faecalis) [µg/mL]	SMILES	MIC (MRSA USA700) [µg/mL]	other results
16 (≈ 30 µM)	32 (≈ 60 µM)		8 (≈ 15 µM)	Brc1ccc(CCNCCCCCCCCOc2ccc3cc(Br)ccc3c2)cc1 [5c]		MIC (MRSA USA100; TSB, 37 °C, 18–20 hours): 32 µg/mL (≈ 60 µM); MIC (MRSA USA200; TSB, 37 °C, 18–20 hours): 8 µg/mL (≈ 15 µM); MIC (MRSA USA300; TSB, 37 °C, 18–20 hours): 32 µg/mL (≈ 60 µM)
8 (≈ 16.9 µM)	4 (≈ 8.47 µM)		2 (≈ 4.23 µM)	Fc1ccc(CCNCCCCCCCCOc2ccc3cc(Br)ccc3c2)cc1 [5a]		MIC (MRSA USA100; TSB, 37 °C, 18–20 hours): 16 µg/mL (≈ 33.9 µM); MIC (MRSA USA200; TSB, 37 °C, 18–20 hours): 4 µg/mL (≈ 8.47 µM); MIC (MRSA USA300; TSB, 37 °C, 18–20 hours): 4 µg/mL (≈ 8.47 µM)
> 128	64 (≈ 108 µM)	64 (≈ 108 µM)	16 (≈ 26.9 µM)	Clc1ccc(CCNCCCCCCCCOc2ccc3cc(Br)c(OCc4ccccc4)cc3c2)cc1 [6d]		MIC (MRSA USA300; TSB, 37 °C, 18–20 hours): > 128 µg/mL
64 (≈ 131 µM)	64 (≈ 131 µM)		16 (≈ 32.7 µM)	Clc1ccc(CCNCCCCCCCCOc2ccc3cc(Br)ccc3c2)cc1 [5b]		MIC (MRSA USA100; TSB, 37 °C, 18–20 hours): > 128 µg/mL; MIC (MRSA USA200; TSB, 37 °C, 18–20 hours): 16 µg/mL (≈ 32.7 µM); MIC (MRSA USA300; TSB, 37 °C, 18–20 hours): 32 µg/mL (≈ 65.5 µM)
> 128	> 128	> 128		Fc1ccc(CCNCCCCCCCCOc2ccc3cc(Br)c(OCc4ccccc4)cc3c2)cc1 [6c]		MIC (MRSA USA100; TSB, 37 °C, 18–20 hours): > 128 µg/mL; MIC (MRSA USA500): > 128 µg/mL; MIC (MRSA USA800): > 128 µg/mL
8 (≈ 15.7 µM)	16 (≈ 31.3 µM)	16 (≈ 31.3 µM)	4 (≈ 7.84 µM)	C=CCN(C)CCCCCCCCOc1ccc2cc(Br)c(OCc3ccccc3)cc2c1 [6a]		MIC (MRSA USA200; TSB, 37 °C, 18–20 hours): 8 µg/mL (≈ 15.7 µM); MIC (MRSA USA800): 64 µg/mL (≈ 125 µM)
